Test results as given in patent publication US11739078B2, “Methods of inhibiting kinases” (INSILICO MEDICINE IP LIMITED, priority 2019, dated 2023).
pIC50: −log10 of the molar value. Like-named read-outs stand apart in the source and are kept apart here.

How the values were obtained:
[1] = test system: collagen type 1 alpha 1 (COL1A1) mRNA expression; experiment: Collagen production assay (COL1A1 mRNA expression); assay type: cell-based
Method: HDF/TERT166 working lot cells can be thawed from liquid nitrogen and expanded using standard conditions (Medium: DMEM/Ham's F12 basal medium supplemented with 1× GlutaMax-I and 10% FBS without antibiotics; 37° C. 5% CO2). For performing the treatment, cells can be seeded at a cell density of 7500 cells/cm^2 in 12-well plates the day before the first treatment. Cells can be seeded in starvation medium (DMEM/Ham's F12 basal medium supplemented with 1× GlutaMax-I and 0.5% FBS without antibiotics). Approximately 24 hours after seeding the substances can be dissolved in DMSO (stocks: 10 mM) and diluted in starvation medium to a final concentration of 10 μM. Half of this working dilution can be supplemented with 100 pg/mL TGFbeta. For each substance, two wells can be treated with a 10 μM concentration of the substance and a 10 μM concentration supplemented with 100 pg/mL TGF-beta. In parallel, cells can be treated with 100 pg/mL TGF-beta alone. Cells in starvation medium can serve as a control. For all cells treatment can be done by performing a medium exchange. […]
RNA extraction can be performed with 200 μL Chloroform, and phase separation can be achieved by centrifugation for 15 min at 12,000 g at 4° C. […] RNA concentration can be determined spectrophotometrically with a Nanodrop instrument. […]

MAP4K4 (h) = MAP4K4 (h) (Homo sapiens (Human), UniProt O95819); experiment: MAP4K4 in vitro kinase assay (radiometric); assay type: biochemical; settings: read-out: MAP4K4_IC50
Chain of MAP4K4 (h) (O95819 whole entry): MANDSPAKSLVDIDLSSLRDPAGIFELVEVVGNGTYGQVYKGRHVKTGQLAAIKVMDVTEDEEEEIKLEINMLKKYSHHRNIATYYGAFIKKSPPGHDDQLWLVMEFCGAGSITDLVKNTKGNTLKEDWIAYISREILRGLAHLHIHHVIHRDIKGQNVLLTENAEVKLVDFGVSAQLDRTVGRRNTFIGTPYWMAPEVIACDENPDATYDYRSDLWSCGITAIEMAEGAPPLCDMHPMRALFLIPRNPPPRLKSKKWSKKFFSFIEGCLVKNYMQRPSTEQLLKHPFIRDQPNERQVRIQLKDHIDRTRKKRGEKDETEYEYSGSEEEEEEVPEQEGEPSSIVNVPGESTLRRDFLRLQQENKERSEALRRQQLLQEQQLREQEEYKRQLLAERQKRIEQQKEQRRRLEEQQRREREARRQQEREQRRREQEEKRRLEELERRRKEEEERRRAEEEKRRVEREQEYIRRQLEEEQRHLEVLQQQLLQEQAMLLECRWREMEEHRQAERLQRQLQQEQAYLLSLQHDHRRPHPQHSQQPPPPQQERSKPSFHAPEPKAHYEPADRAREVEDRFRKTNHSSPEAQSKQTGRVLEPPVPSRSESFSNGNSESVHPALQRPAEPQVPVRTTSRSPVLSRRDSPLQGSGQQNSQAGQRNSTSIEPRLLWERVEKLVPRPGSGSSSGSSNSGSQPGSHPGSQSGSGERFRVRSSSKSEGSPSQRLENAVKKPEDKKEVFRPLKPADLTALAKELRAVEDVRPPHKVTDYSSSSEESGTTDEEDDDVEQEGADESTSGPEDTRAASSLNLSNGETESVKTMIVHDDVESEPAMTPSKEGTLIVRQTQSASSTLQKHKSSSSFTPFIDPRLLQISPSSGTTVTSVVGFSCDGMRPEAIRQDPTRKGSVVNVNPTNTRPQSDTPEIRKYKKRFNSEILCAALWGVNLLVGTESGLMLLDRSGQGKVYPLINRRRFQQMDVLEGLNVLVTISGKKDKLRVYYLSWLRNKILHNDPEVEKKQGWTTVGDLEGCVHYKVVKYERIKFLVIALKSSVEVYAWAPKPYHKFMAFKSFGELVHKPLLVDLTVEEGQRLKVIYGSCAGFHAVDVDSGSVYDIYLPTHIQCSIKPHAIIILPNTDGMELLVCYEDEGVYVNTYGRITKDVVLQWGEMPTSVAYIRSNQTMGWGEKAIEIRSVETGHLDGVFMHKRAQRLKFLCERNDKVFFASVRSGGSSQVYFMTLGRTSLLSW
Method: (§1) (specific activity and concentration as required). The reaction is initiated by the addition of the Mg/ATP mix. After incubation for 40 minutes at room temperature, the reaction is stopped by the addition of phosphoric acid to a concentration of 0.5%.

TNIK = TNIK (Homo sapiens (Human), UniProt Q9UKE5); experiment: TNIK enzymatic assay (radiometric kinase inhibition); assay type: biochemical
Chain of TNIK (Q9UKE5 whole entry): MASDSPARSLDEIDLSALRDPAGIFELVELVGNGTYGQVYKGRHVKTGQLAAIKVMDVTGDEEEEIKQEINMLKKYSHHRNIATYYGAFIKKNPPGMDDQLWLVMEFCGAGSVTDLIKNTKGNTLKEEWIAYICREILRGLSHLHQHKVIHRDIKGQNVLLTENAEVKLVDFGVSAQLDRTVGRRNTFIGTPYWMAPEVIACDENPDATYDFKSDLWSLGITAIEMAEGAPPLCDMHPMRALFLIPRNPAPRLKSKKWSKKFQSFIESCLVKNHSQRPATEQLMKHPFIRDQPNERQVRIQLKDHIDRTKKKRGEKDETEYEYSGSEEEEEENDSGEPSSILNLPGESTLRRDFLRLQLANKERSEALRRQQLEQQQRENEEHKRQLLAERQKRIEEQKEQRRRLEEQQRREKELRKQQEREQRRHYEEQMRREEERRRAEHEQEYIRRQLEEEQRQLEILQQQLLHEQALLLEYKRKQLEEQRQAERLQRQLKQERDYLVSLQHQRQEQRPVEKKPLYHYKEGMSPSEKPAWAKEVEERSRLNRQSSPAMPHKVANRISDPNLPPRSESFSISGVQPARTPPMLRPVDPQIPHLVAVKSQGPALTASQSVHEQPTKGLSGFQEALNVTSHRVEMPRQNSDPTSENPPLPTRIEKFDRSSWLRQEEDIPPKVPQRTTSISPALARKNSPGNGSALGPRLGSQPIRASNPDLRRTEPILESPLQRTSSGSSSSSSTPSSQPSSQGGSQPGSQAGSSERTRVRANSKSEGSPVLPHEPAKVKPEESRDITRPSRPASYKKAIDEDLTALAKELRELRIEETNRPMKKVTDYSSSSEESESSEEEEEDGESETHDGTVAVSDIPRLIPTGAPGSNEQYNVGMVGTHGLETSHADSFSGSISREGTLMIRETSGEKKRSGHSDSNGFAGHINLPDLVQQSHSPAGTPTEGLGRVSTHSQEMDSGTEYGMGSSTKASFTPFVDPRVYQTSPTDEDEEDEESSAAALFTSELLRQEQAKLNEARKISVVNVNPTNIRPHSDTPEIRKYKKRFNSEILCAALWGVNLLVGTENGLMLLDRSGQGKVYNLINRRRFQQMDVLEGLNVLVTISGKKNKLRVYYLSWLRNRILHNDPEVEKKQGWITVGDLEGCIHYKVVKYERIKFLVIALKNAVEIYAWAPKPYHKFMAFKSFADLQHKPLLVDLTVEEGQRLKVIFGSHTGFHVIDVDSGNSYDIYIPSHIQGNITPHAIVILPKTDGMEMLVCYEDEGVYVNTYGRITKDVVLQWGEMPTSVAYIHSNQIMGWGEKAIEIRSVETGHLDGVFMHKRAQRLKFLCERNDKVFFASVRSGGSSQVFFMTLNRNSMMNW
Method: as §1, with “The compounds were studied for function as TNIK inhibitors to generate the data of Table 1. […] (specific” for “(specific”

[2] = test system: Human hepatic stellate cell LX-2; experiment: LX-2 fibrosis assay, collagen production; assay type: cell-based; settings: LX-2 cells stimulated with 4 ng/mL TGF-b for 48 hours, Western blot
Method: Human hepatic stellate cell LX-2 were grown in DMEM (Invitrogen, 11960) supplied with 1% MEM Non-Essential Amino Acids (Invitrogen, 11140-050), 2% fetal bovine serum (Hyclone, SV30087.03), Penicillin (100 U/mL)-streptomycin (100 μg/mL) (Millipore, TMS-AB2-C) and 2 mM L-Glutamine (Invitrogen, 25030-001). After the cells grew in 12-well plates for 24 hours, the cell culture medium was changed to the same as above except using 0.4% fetal bovine serum. After 20 hour growth in the reduced serum medium, the cells were treated with indicated doses of compounds for 30 minutes. Subsequently, the cells were stimulated with 4 ng/mL TGF-b (R&D Systems, 240-B-002) for 48 hours. The cells were rinsed twice with DPBS before being harvested with 100 μL RIPA buffer (Sigma, R10278) supplemented with protease inhibitor cocktail (Roche, 04693132001) at 4° C. The total protein in each sample was quantified using BCA Protein Assay Kit (Pierce™, 23227) and equal amount of total protein of each sample was subject to Western blot analysis. Antibodies used were mouse anti-α-Actin (SPM332) ([…]), mouse anti-CTGF (E5) ([…]), and mouse anti-collagen α1 (3G3) (sc-293182), from Santa Cruz Biotechnologies; and mouse anti-GAPDH (6C5) (EMD Millipore, MAB374).

[3] = TNIK enzymatic assay, Table 1, read-out: IC50

Structure (SMILES)	collagen type 1 alpha 1 (COL1A1) mRNA expression [1]	effect of TGF-beta treatment on the COL1A1 mRNA expression ([1]; with TGF-beta treatment)	pIC50 (MAP4K4 (h))	pIC50 (TNIK; [3])	pIC50 (TNIK; read-out: TNIK_IC50)	EC50 ([2]; Homo sapiens, LX-2, 48 h) [µM]	EC50 [2] [µM]
CC(=O)Nc1ccc(C(=O)Nc2sc(Nc3ccccc3)nc2C(N)=O)cc1 [5-(4-acetamidobenzamido)-2-(phenylamino)-1,3-thiazole-4-carboxamide]	decreased	inhibited					
O=C(Nc1ccccc1F)c1ccc(-c2c(-c3ccc(F)cc3)ncn2C2CCNC2)o1 (stereo not drawn) [Compound 85, N-(2-fluorophenyl)-5-(4-(4-fluorophenyl)-1-(pyrrolidin-3-yl)-1H-imidazol-5-yl)furan-2-carboxamide]			5.92	6.60	6.60	2.01	
O=C(Nc1ccccc1F)c1ccc(-c2c(-c3ccc(F)cc3)ncn2C2CCOC2)o1 (stereo not drawn) [Compound 86, N-(2-fluorophenyl)-5-(4-(4-fluorophenyl)-1-(tetrahydrofuran-3-yl)-1H-imidazol-5-yl)furan-2-carboxamide]			6.85	7.60	7.60	1.14	
O=C(Nc1ccccc1F)c1ccc(-c2c(-c3ccc(F)cc3)ncn2CC2CCCO2)o1 (stereo not drawn) [Compound 87, N-(2-fluorophenyl)-5-(4-(4-fluorophenyl)-1-((tetrahydrofuran-2-yl)methyl)-1H-imidazol-5-yl)furan-2-carboxamide]			6.65	7.12	7.12	1.5	
O=C(Nc1ccccc1F)c1ccc(-c2c(-c3ccncc3)ncn2C2CCCC2)o1 [Compound 91, 5-(1-cyclopentyl-4-(pyridin-4-yl)-1H-imidazol-5-yl)-N-(2-fluorophenyl)furan-2-carboxamide]			6.25		6.87	1.53	
O=C(Nc1ccccc1F)c1ccc(-c2c(-c3cccnc3)ncn2C2CCCC2)o1 [Compound 92, 5-(1-cyclopentyl-4-(pyridin-3-yl)-1H-imidazol-5-yl)-N-(2-fluorophenyl)furan-2-carboxamide]			6.95		7.03	4.28	
O=C(Nc1ccccc1F)c1ccc(-c2c(-c3ccc(F)nc3)ncn2C2CCCC2)o1 [Compound 93, 5-(1-cyclopentyl-4-(6-fluoropyridin-3-yl)-1H-imidazol-5-yl)-N-(2-fluorophenyl)furan-2-carboxamide]			6.88	7.44	7.44	0.754	
O=C(Nc1c(O)cncc1F)c1ccc(-c2c(-c3ccc(F)cc3)ncn2C2COC2)o1 [Compound A-45, N-(3-fluoro-5-hydroxypyridin-4-yl)-5-(4-(4-fluorophenyl)-1-(oxetan-3-yl)-1H-imidazol-5-yl)furan-2-carboxamide]			5.16		5.43	> 10	
O=C(Nc1cc[nH]c(=O)c1)c1ccc(-c2c(-c3ccc(F)cc3)ncn2C2COC2)o1 [Compound A-46, 5-(4-(4-fluorophenyl)-1-(oxetan-3-yl)-1H-imidazol-5-yl)-N-(2-oxo-1,2-dihydropyridin-4-yl)furan-2-carboxamide]			5.08		5.27	> 10	
Cn1cnc(-c2ccc(F)cc2)c1-c1ccc(C(=O)Nc2ccncc2F)o1 [Compound A-49, 5-(4-(4-fluorophenyl)-1-methyl-1H-imidazol-5-yl)-N-(3-fluoropyridin-4-yl)furan-2-carboxamide]			< 6.00		6.90	0.401	
O=C(Nc1ccncc1F)c1ccc(-c2c(-c3ccc(F)cc3)ncn2C2COCC2F)o1 (stereo not drawn) [Compound A-53, S-(4-(4-fluorophenyl)-1-(4-fluorotetrahydrofuran-3-yl)-1H-imidazol-S-yl)-N-(3-fluoropyridin-4-yl)furan-2-carboxamide]			6.47		6.72		1.98
O=C(Nc1ccncn1)c1ccc(-c2c(-c3ccc(F)cc3)ncn2C2COCC2F)o1 (stereo not drawn) [Compound A-55, 5-(4-(4-fluorophenyl)-1-(4-fluorotetrahydrofuran-3-yl)-1H-imidazol-5-yl)-N-(pyrimidin-4-yl)furan-2-carboxamide]			6.52		7.04	0.437	
Cc1cc(NC(=O)c2ccc(-c3c(-c4ccc(F)cc4)ncn3C3COCC3F)o2)c(F)cn1 (stereo not drawn) [Compound A-58, N-(5-fluoro-2-methylpyridin-4-yl)-5-(4-(4-fluorophenyl)-1-(4-fluorotetrahydrofuran-3-yl)-1H-imidazol-5-yl)furan-2-carboxamide]			7.02		7.12	0.669	
